Data from the supplement of paper PMC10307832.

Key:
Assay in all cases: relative viability (nuclei count vs DMSO), 5 days (fraction); higher = more cells survive
Kobe2602 + Olaparib = compound: C1=CC(=CC=C1NC(=S)NNC2=C(C=C(C=C2[N+](=O)[O-])C(F)(F)F)[N+](=O)[O-])F [Kobe2602] + O=C(c1cc(Cc2n[nH]c(=O)c3ccccc23)ccc1F)N1CCN(C(=O)C2CC2)CC1 [Olaparib] (partner 8 µM)
How it was run: (§1)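 Relative viability divides the nuclei count in treated wells by that in vehicle wells. Lung cancer cell lines were seeded in 1536-well plates, dosed by pin tool the next day, and fixed and stained after 5 days in one step with final 0.05% Triton X-100, 1% formaldehyde and 1 ug/ml Hoechst. Dosing was a single drug or a fixed anchor-drug dose plus five library-drug doses (not always all listed) in √10 steps, and values are medians of duplicate plates imaged at 4×.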

[1] = compound: COc1cc2nccc(Oc3ccc(NC(=O)C4(C(=O)Nc5ccc(F)cc5)CC4)cc3)c2cc1OC [Cabozantinib] + N=C(N)NC(=N)NCCc1ccccc1 [Phenformin] (partner 250 µM)
How it was run: as §1

[2] = compound: COc1cc2nccc(Oc3ccc(NC(=O)C4(C(=O)Nc5ccc(F)cc5)CC4)cc3)c2cc1OC [Cabozantinib] + Nc1nc2[nH]cc(CCc3ccc(C(=O)N[C@@H](CCC(=O)O)C(=O)O)cc3)c2c(=O)[nH]1 [Pemetrexed] (partner 0.2 µM)
How it was run: as §1

Cabozantinib + Olaparib = compound: COc1cc2nccc(Oc3ccc(NC(=O)C4(C(=O)Nc5ccc(F)cc5)CC4)cc3)c2cc1OC [Cabozantinib] + O=C(c1cc(Cc2n[nH]c(=O)c3ccccc23)ccc1F)N1CCN(C(=O)C2CC2)CC1 [Olaparib] (partner 8 µM)
How it was run: as §1

Cell Line | relative viability (Kobe2602 + Olaparib; first compound 0.2 µM) | relative viability (Kobe2602 + Olaparib; first compound 0.6325 µM) | relative viability (Kobe2602 + Olaparib; first compound 2 µM) | relative viability (Kobe2602 + Olaparib; first compound 6.325 µM) | relative viability (Kobe2602 + Olaparib; first compound 20 µM) | relative viability ([1]; first compound 0.02 µM) | relative viability ([1]; first compound 0.06325 µM) | relative viability ([1]; first compound 0.6325 µM) | relative viability ([1]; first compound 2 µM) | relative viability ([2]; first compound 0.02 µM) | relative viability ([2]; first compound 0.06325 µM) | relative viability ([2]; first compound 0.6325 µM) | relative viability ([2]; first compound 2 µM) | relative viability (Cabozantinib + Olaparib; first compound 0.02 µM) | relative viability (Cabozantinib + Olaparib; first compound 0.06325 µM) | relative viability (Cabozantinib + Olaparib; first compound 0.6325 µM) | relative viability (Cabozantinib + Olaparib; first compound 2 µM) | relative viability ([1]; first compound 0.2 µM) | relative viability ([2]; first compound 0.2 µM) | relative viability (Cabozantinib + Olaparib; first compound 0.2 µM)
PC-14 | 0.24 | 0.356 | 0.256 | 0.259 | 0.101 | 0.531 | 0.93 | 0.591 | 0.552 | 0.113 | 0.141 | 0.126 | 0.129 | 0.254 | 0.33 | 0.269 | 0.307 | – | – | –
NCI-H522 | 0.66 | 0.662 | 0.646 | 0.641 | 0.598 | 0.692 | 0.657 | 0.637 | 0.716 | 1.16 | 0.972 | 1.25 | 0.934 | 0.714 | 0.667 | 0.625 | 0.648 | 0.633 | 0.943 | 0.584
EMC-BAC-2 | 0.511 | 0.531 | 0.46 | 0.559 | 0.532 | 0.475 | 0.589 | 0.516 | 0.476 | 0.47 | 0.456 | 0.456 | 0.449 | 0.496 | 0.499 | 0.472 | 0.485 | 0.582 | 0.529 | 0.531
NCI-H1437 | 0.666 | 0.632 | 0.6 | 0.562 | 0.475 | 0.301 | 0.374 | 0.326 | 0.322 | 0.307 | 0.35 | 0.307 | 0.256 | 0.656 | 0.633 | 0.615 | 0.607 | 0.284 | 0.316 | 0.655
NCI-H2405 | 0.915 | 0.874 | 0.868 | 0.905 | 0.909 | 0.335 | 0.46 | 0.39 | 0.418 | 0.818 | 1.13 | 1.09 | 1.02 | 0.859 | 1.01 | 0.899 | 0.804 | 0.484 | 1.08 | 0.931
NCI-H1666 | 0.717 | 0.741 | 0.829 | 0.774 | 0.805 | 0.568 | 0.559 | 0.544 | 0.601 | 0.9 | 0.902 | 0.899 | 0.875 | 0.821 | 0.802 | 0.715 | 0.732 | 0.607 | 0.873 | 0.719
NCI-H1993 | 0.853 | 1.07 | 0.922 | 0.918 | 1.26 | 0.448 | 0.521 | 0.473 | 0.476 | 0.486 | 0.507 | 0.561 | 0.662 | 1.03 | 0.975 | 0.785 | 0.981 | 0.511 | 0.484 | 0.75
COR-L23 | 0.316 | 0.394 | 0.351 | 0.361 | 0.326 | 0.433 | 0.438 | 0.443 | 0.408 | 0.215 | 0.197 | 0.185 | 0.193 | 0.366 | 0.399 | 0.37 | 0.351 | 0.413 | 0.191 | 0.39
HCC-44 | 0.965 | 0.983 | 0.955 | 0.951 | 0.898 | 0.102 | 0.273 | 0.224 | 0.224 | 0.659 | 0.609 | 0.701 | 0.724 | 0.988 | 1.02 | 0.997 | 1 | 0.275 | 0.735 | 0.964
LU99A | 0.255 | 0.275 | 0.259 | 0.262 | 0.28 | 0.766 | 0.934 | 0.696 | 0.89 | 0.18 | 0.199 | 0.173 | 0.229 | 0.304 | 0.258 | 0.281 | 0.261 | 0.925 | 0.216 | 0.283
NCI-H596 | 0.758 | 0.661 | 0.718 | 0.718 | 0.799 | 0.728 | 0.883 | 0.796 | 0.664 | 0.485 | 0.525 | 0.52 | 0.54 | 0.75 | 0.768 | 0.7 | 0.793 | 0.778 | 0.487 | 0.756
NCI-H1975 | 0.763 | 0.78 | 0.766 | 0.722 | 0.755 | 0.408 | 0.462 | 0.423 | 0.399 | 0.318 | 0.273 | 0.263 | 0.289 | 0.881 | 0.916 | 0.786 | 0.679 | 0.386 | 0.288 | 0.892
NCI-H1355 | 0.742 | 0.747 | 0.712 | 0.727 | 0.601 | 0.435 | 0.516 | 0.436 | 0.424 | 1.05 | 1.12 | 1.07 | 1.06 | 0.748 | 0.747 | 0.771 | 0.714 | 0.475 | 1.04 | 0.775
NCI-H1755 | 0.848 | 0.893 | 0.87 | 0.853 | 0.915 | 0.611 | 0.624 | 0.644 | 0.561 | 0.449 | 0.415 | 0.425 | 0.422 | 0.868 | 0.898 | 0.785 | 0.79 | 0.57 | 0.436 | 0.872
NCI-H2009 | 0.685 | 0.701 | 0.735 | 0.714 | 0.736 | 0.532 | 0.549 | 0.518 | 0.459 | 1.08 | 1.07 | 1 | 1.08 | 0.718 | 0.71 | 0.712 | 0.762 | 0.547 | 1.02 | 0.703
NCI-H1395 | 0.447 | 0.487 | 0.463 | 0.535 | 0.486 | 0.465 | 0.477 | 0.438 | 0.448 | 0.699 | 1.03 | 0.714 | 0.824 | 0.439 | 0.466 | 0.46 | 0.454 | 0.472 | 0.924 | 0.497
